Laboratory results taken from patent US10364222B2, “Cyclic amine derivative and medical use thereof” (Toray Industries, Inc., priority 2016, dated 2019).

Columns and labels:
[1] = test system: IL-17 production in mouse splenocytes; assay: Suppressive effect on IL-17 production by IL-23 stimulation in mouse splenocytes; format: cell-based; conditions: Splenocyte, 72 h, at 5 μmol/L of the test compound, 10 ng/mL human IL-23, 3 days, read-out: IL-17 production inhibition rate (%)
Method: Using mouse splenocytes, the suppressive effect of the cyclic amine derivative (I) or a pharmacologically acceptable salt thereof on IL-17 production by IL-23 stimulation was evaluated by a partially modified method mentioned in The Journal of Biological Chemistry, 2003, Vol. 278, No. 3, p. 1910-1914.
A single cell suspension was prepared from the spleen of C57BL/6J mice (male, 7 to 23 weeks old) (Charles River Laboratories Japan, Inc.) and splenocytes were prepared using Histopaque-1083 (Sigma-Aldrich Japan). The culture medium was used by adding 10% FBS (Gibco), 50 U/mL of penicillin 50 μg/mL of streptomycin (Gibco), 50 μmol/L of 2-mercaptoethanol (Gibco), and 100 U/mL of human IL-2 (Cell Science & Technology Institute, Inc.) to RPMI1640 medium (Gibco). The test compound was dissolved in DMSO and then diluted with the culture medium to have a final concentration of DMSO of 0.1% before use. Splenocytes (3×10^5 cells/well) prepared in the culture medium were seeded in wells of a 96-well flat-bottom plate (Corning Incorporated), the test compound and 10 ng/mL of human IL-23 (R & D systems, Inc.) were added thereto, and the cells were cultured at 37° C. under 5% CO2 for 3 days. A well without addition of human IL-23 and without addition of the test compound and a well with addition of human IL-23 and without addition of the test compound were prepared. After completion of the culture, the culture supernatant was collected and the IL-17 production amount in the supernatant was determined by ELISA method (R & D systems, Inc.).
The IL-17 production inhibition rate (%) was calculated from Formula 2. IL-17 production inhibition rate(%)=(1−((IL-17 production amount with addition of IL-23 and with addition of the test compound)−(IL-17 production amount without addition of IL-23 and without addition of the test compound))/((IL-17 production amount with addition of IL-23 and without addition of the test compound)−(IL-17 production amount without addition of IL-23 and without addition of the test compound)))×100 Formula 2

[2] = target: T1, ligand-binding domain of RORγ (RORγ-LBD) (Homo sapiens, UniProt P51449); assay: Inhibitory effect on RORγ-coactivator binding (LanthaScreen TR-FRET RORγ Coactivator Assay); conditions: at 33 μmol/L of the test compound; read-out: RORγ-coactivator binding inhibition rate (%)
T1 construct: purchased Invitrogen
T1 sequence (P51449 269-508 limits assumed): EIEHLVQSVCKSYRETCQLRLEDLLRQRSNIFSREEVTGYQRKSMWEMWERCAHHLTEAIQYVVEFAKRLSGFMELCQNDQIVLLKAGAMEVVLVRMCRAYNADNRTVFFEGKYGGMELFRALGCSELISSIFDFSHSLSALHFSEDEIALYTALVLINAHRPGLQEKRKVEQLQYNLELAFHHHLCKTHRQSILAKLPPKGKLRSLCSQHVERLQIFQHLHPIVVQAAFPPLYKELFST
Method: The inhibitory effect of the cyclic amine derivative (I) or a pharmacologically acceptable salt thereof on the binding between a ligand-binding domain of RORγ (hereinafter referred to as RORγ-LBD) and a coactivator was evaluated using Invitrogen's LanthaScreen™TR-FRET Retinoid-Related Orphan Receptor (ROR) gamma Coactivator Assay kit utilizing time-resolved fluorescence energy transfer (TR-FRET).
The test compound was dissolved in DMSO and diluted with TR-FRET Coregulator Buffer D (Invitrogen) containing 5 mmol/L of DTT to have a final DMSO concentration of 1% before use. To each well of a 384-well black plate (Corning Inc.), 4 nmol/L of GST-fused RORγ-LBD (Invitrogen) diluted with the buffer mentioned above and the test compound were added. A well without addition of the test compound and without addition of GST-fused RORγ-LBD (background) and a well without addition of the test compound and with addition of GST-fused RORγ-LBD (control) were prepared. Next, 150 nmol/L of fluorescein-labeled TRAP220/DRIP-2 (Invitrogen) diluted with the buffer mentioned above and 32 nmol/L of terbium-labeled anti-GST antibody (Invitrogen) were added to each well. After incubating the plate at room temperature for 16 to 24 hours, the fluorescence at 495 nm and 520 nm when excited at 320 nm was measured for each well and the ratio (fluorescence value at 520 nm/fluorescence value at 495 nm) was calculated.
The fold change with addition of the test compound (ratio with addition of the test compound/ratio of the background), the fold change of the control (ratio of the control/ratio of the background), and the fold change of the background (ratio of the background/ratio of the background) were calculated, and then the inhibition rate of binding between RORγ-LBD and a coactivator (hereinafter referred to as RORγ-coactivator binding inhibition rate) (%) was calculated from Formula 1: RORγ-coactivator binding inhibition rate(%)=(1−((Fold change with addition of the test compound)−(Fold change of the background))/((Fold change of the control)−(Fold change of the background)))×100 Formula 1

SMILES | inhibition at 5 µM [1] [%] | inhibition at 33 µM [2] [%]
CS(=O)(=O)NCC(=O)N1CCCCC1C(=O)Nc1ccc(-c2ccccc2OC(F)(F)F)c(Cl)c1 (stereo not shown) [Example 10, N-(2-chloro-2′-(trifluoromethoxy)-[1,1′-biphenyl]-4-yl)-1-(2-(methylsulfonamide)acetyl)piperidine-2-carboxamide] | 98.6 | 100
CN(CC(=O)N1CCCCC1C(=O)Nc1ccc(-c2ccccc2OC(F)(F)F)c(Cl)c1)S(C)(=O)=O (stereo not shown) [Example 13, N-(2-chloro-2′-(trifluoromethoxy)-[1,1′-biphenyl]-4-yl)-1-(2-(N-methylmethylsulfonamide)acetyl)piperidine-2-carboxamide] | 98.2 | 101
COCCC(=O)N1CCCCC1C(=O)Nc1ccc(-c2ccccc2OC(F)(F)F)c(Cl)c1 (stereo not shown) [Example 45, N-(2-chloro-2′-(trifluoromethoxy)-[1,1′-biphenyl]-4-yl)-1-(3-methoxypropanoyl)piperidine-2-carboxamide] | 99.9 | 92
CCS(=O)(=O)N1CCCCC1C(=O)Nc1ccc(-c2ccccc2OC(F)(F)F)c(Cl)c1 (stereo not shown) [Example 14, N-(2-chloro-2′-(trifluoromethoxy)-[1,1′-biphenyl]-4-yl)-1-(ethylsulfonyl)piperidine-2-carboxamide] | 90.5 | 94
CCC(=O)N1CCCCC1C(=O)Nc1ccc(-c2ccccc2OC(F)(F)F)c(Cl)c1 (stereo not shown) [Example 3, N-(2-chloro-2′-(trifluoromethoxy)-[1,1′-biphenyl]-4-yl)-1-propionylpiperidine-2-carboxamide] | 98.6 | 88.2
CN(CC(=O)N1CCCCC1C(=O)Nc1ccc(-c2ccccc2OC(F)(F)F)c(F)c1)S(C)(=O)=O (stereo not shown) [Example 51, N-(2-fluoro-2′-(trifluoromethoxy)-[1,1′-biphenyl]-4-yl)-1-(2-(N-methylmethylsulfonamide)acetyl)piperidine-2-carboxamide] | 98.6 | 100
O=C(Nc1ccc(-c2ccccc2OC(F)(F)F)c(Cl)c1)C1CCCCN1C(=O)Cc1ccco1 (stereo not shown) [Example 54, 1-(2-(furan-2-yl)acetyl)-N-(2-chloro-2′-(trifluoromethoxy)-[1,1′-biphenyl]-4-yl)piperidine-2-carboxamide] | 98.7 | 102
O=C(Nc1ccc(-c2ccccc2OC(F)(F)F)c(Cl)c1)[C@H]1CCCCN1C(=O)C(F)(F)F [Example 23, (R)-N-(2-chloro-2′-(trifluoromethoxy)-[1,1′-biphenyl]-4-yl)-1-(2,2,2-trifluoroacetyl)piperidine-2-carboxamide] | 99.4 | 98.4
COC(=O)CC(=O)N1CCCCC1C(=O)Nc1ccc(-c2ccccc2OC(F)(F)F)c(Cl)c1 (stereo not shown) [Example 43, methyl 3-(2-((2-chloro-2′-(trifluoromethoxy)-[1,1′-biphenyl]-4-yl)carbamoyl)piperidin-1-yl)-3-oxopropanoate] | 92.4 | 99
CN(C)C(=O)N1CCCCC1C(=O)Nc1ccc(-c2ccccc2OC(F)(F)F)c(Cl)c1 (stereo not shown) [Example 18, N^2-(2-chloro-2′-(trifluoromethoxy)-[1,1′-biphenyl]-4-yl)-N^1,N^1-dimethylpiperidine-1,2-dicarboxamide] | 90.8 | 95.9
CS(=O)(=O)N1CCCCC1C(=O)Nc1ccc(-c2ccccc2OC(F)(F)F)c(Cl)c1 (stereo not shown) [Example 15, N-(2-chloro-2′-(trifluoromethoxy)-[1,1′-biphenyl]-4-yl)-1-(methylsulfonyl)piperidine-2-carboxamide] | 99.4 | 100
CC(=O)N1CC[C@@H](F)C[C@@H]1C(=O)Nc1ccc(-c2ccccc2OC(F)(F)F)c(Cl)c1 [Example 25, (2R,4R)-1-acetyl-N-(2-chloro-2′-(trifluoromethoxy)-[1,1′-biphenyl]-4-yl)-4-fluoropiperidine-2-carboxamide] | 99.4 | 94.2
COC(=O)CCCC(=O)N1CCCC[C@@H]1C(=O)Nc1ccc(-c2ccccc2OC(F)(F)F)c(Cl)c1 [Example 69, methyl (R)-5-(2-((2-chloro-2′-(trifluoromethoxy)-[1,1′-biphenyl]-4-yl)carbamoyl)piperidin-1-yl)-5-oxopentanoate] | 99.5 | 95.9
Cc1nnc(CC(=O)N2CCCC[C@@H]2C(=O)Nc2ccc(-c3ccccc3OC(F)(F)F)c(Cl)c2)o1 [Example 67, (R)-N-(2-chloro-2′-(trifluoromethoxy)-[1,1′-biphenyl]-4-yl)-1-(2-(5-methyl-1,3,4-oxadiazol-2-yl)acetyl)piperidine-2-carboxamide] | 98.7 | 99.1
CS(=O)(=O)N1CCCC[C@@H]1C(=O)Nc1ccc(-c2ccccc2OC(F)(F)F)c(Cl)c1 [Example 21, (R)-N-(2-chloro-2′-(trifluoromethoxy)-[1,1′-biphenyl]-4-yl)-1-(methylsulfonyl)piperidine-2-carboxamide] | 99.8 | 98.2
O=C(Nc1ccc(-c2ccccc2OC(F)(F)F)c(Cl)c1)C1CCCCN1C(=O)c1cn[nH]c1 (stereo not shown) [Example 48, N-(2-chloro-2′-(trifluoromethoxy)-[1,1′-biphenyl]-4-yl)-1-(1H-pyrazole-4-carbonyl)piperidine-2-carboxamide] | 99.4 | 102
O=C(Nc1ccc(-c2ccccc2OC(F)(F)F)c(Cl)c1)[C@H]1CCCCN1C(=O)Cn1nccn1 [Example 66, (R)-1-(2-(2H-1,2,3-triazol-2-yl)acetyl)-N-(2-chloro-2′-(trifluoromethoxy)-[1,1′-biphenyl]-4-yl)piperidine-2-carboxamide] | 99.5 | 103
CC(C)Oc1ccccc1-c1ccc(NC(=O)C2CCCCN2C(=O)CN(C)S(C)(=O)=O)cc1Cl (stereo not shown) [Example 49, N-(2-chloro-2′-isopropoxy-[1,1′-biphenyl]-4-yl)-1-(2-(N-methylmethylsulfonamide)acetyl)piperidine-2-carboxamide] | 98.3 | 99.3
CS(=O)(=O)CCC(=O)N1CCCCC1C(=O)Nc1ccc(-c2ccccc2OC(F)(F)F)c(Cl)c1 (stereo not shown) [Example 40, N-(2-chloro-2′-(trifluoromethoxy)-[1,1′-biphenyl]-4-yl)-1-(3-(methylsulfonyl)propanoyl)piperidine-2-carboxamide] | 98.2 | 98.7
CC(=O)N1CCCCC1C(=O)Nc1ccc(-c2ccccc2OC(F)(F)F)c(Cl)c1 (stereo not shown) [Example 1, 1-acetyl-N-(2-chloro-2′-(trifluoromethoxy)-[1,1′-biphenyl]-4-yl)piperidine-2-carboxamide] | 94 | 90.9
